Laboratory results from ChEMBL document CHEMBL1201861, “Genomics of Drug Sensitity in Cancer screening data, Wellcome Trust Sanger Institute”.

Key:
Experiment in all cases: cells
DB = type: functional, cell-based; conditions: Homo sapiens
Description: SANGER: Inhibition of human DB cell growth in a cell viability assay.

DEL = type: functional, cell-based; conditions: Homo sapiens
Description: SANGER: Inhibition of human DEL cell growth in a cell viability assay.

Detroit 562 = type: functional, cell-based, Homo sapiens; conditions: Homo sapiens, Detroit 562
Description: SANGER: Inhibition of human Detroit562 cell growth in a cell viability assay.

ES4 = type: functional, cell-based, Homo sapiens; conditions: Homo sapiens, ES4
Description: SANGER: Inhibition of human ES4 cell growth in a cell viability assay.

ES8 = type: functional, cell-based, Homo sapiens; conditions: Homo sapiens, ES8
Description: SANGER: Inhibition of human ES8 cell growth in a cell viability assay.

ETK-1 = type: functional, cell-based, Homo sapiens; conditions: Homo sapiens, ETK-1
Description: SANGER: Inhibition of human ETK-1 cell growth in a cell viability assay.

EW-13 = type: functional, cell-based; conditions: Homo sapiens
Description: SANGER: Inhibition of human EW-13 cell growth in a cell viability assay.

HO-1-N-1 = type: functional, cell-based, Homo sapiens; conditions: Homo sapiens, HO-1-N-1
Description: SANGER: Inhibition of human HO-1-N-1 cell growth in a cell viability assay.

HT-3 = type: functional, cell-based, Homo sapiens; conditions: Homo sapiens, HT-3
Description: SANGER: Inhibition of human HT-3 cell growth in a cell viability assay.

HuO-3N1 = type: functional, cell-based, Homo sapiens; conditions: Homo sapiens, HuO-3N1
Description: SANGER: Inhibition of human HuO-3N1 cell growth in a cell viability assay.

IST-MEL1 = type: functional, cell-based, Homo sapiens; conditions: Homo sapiens, IST-MEL1
Description: SANGER: Inhibition of human IST-MEL1 cell growth in a cell viability assay.

KE-37 = type: functional, cell-based; conditions: Homo sapiens
Description: SANGER: Inhibition of human KE-37 cell growth in a cell viability assay.

KLE = type: functional, cell-based, Homo sapiens; conditions: Homo sapiens, KLE
Description: SANGER: Inhibition of human KLE cell growth in a cell viability assay.

KNS-42 = type: functional, cell-based, Homo sapiens; conditions: Homo sapiens, KNS-42
Description: SANGER: Inhibition of human KNS-42 cell growth in a cell viability assay.

KYSE-410 = type: functional, cell-based, Homo sapiens; conditions: Homo sapiens, KYSE-410
Description: SANGER: Inhibition of human KYSE-410 cell growth in a cell viability assay.

KYSE-70 cell line = type: functional, cell-based, Homo sapiens; conditions: Homo sapiens, KYSE-70
Description: SANGER: Inhibition of human KYSE-70 cell growth in a cell viability assay.

LC-2-ad = type: functional, cell-based, Homo sapiens; conditions: Homo sapiens, LC-2-ad
Description: SANGER: Inhibition of human LC-2-ad cell growth in a cell viability assay.

LOX IMVI = type: functional, cell-based; conditions: Homo sapiens
Description: SANGER: Inhibition of human LOXIMVI cell growth in a cell viability assay.

LS-513 = type: functional, cell-based, Homo sapiens; conditions: Homo sapiens, LS-513
Description: SANGER: Inhibition of human LS-513 cell growth in a cell viability assay.

LU-99A = type: functional, cell-based, Homo sapiens; conditions: Homo sapiens, LU-99A
Description: SANGER: Inhibition of human LU-99A cell growth in a cell viability assay.

MEG-01 = type: functional, cell-based; conditions: Homo sapiens
Description: SANGER: Inhibition of human MEG-01 cell growth in a cell viability assay.

MHH-ES-1 = type: functional, cell-based, Homo sapiens; conditions: Homo sapiens, MHH-ES-1
Description: SANGER: Inhibition of human MHH-ES-1 cell growth in a cell viability assay.

MHH-PREB-1 = type: functional, cell-based; conditions: Homo sapiens
Description: SANGER: Inhibition of human MHH-PREB-1 cell growth in a cell viability assay.

MKN-28 = type: functional, cell-based, Homo sapiens; conditions: Homo sapiens, MKN-28
Description: SANGER: Inhibition of human MKN28 cell growth in a cell viability assay.

MZ1-PC = type: functional, cell-based, Homo sapiens; conditions: Homo sapiens, MZ1-PC
Description: SANGER: Inhibition of human MZ1-PC cell growth in a cell viability assay.

NB5 = type: functional, cell-based, Homo sapiens; conditions: Homo sapiens, NB5
Description: SANGER: Inhibition of human NB5 cell growth in a cell viability assay.

NCI-H1693 = type: functional, cell-based, Homo sapiens; conditions: Homo sapiens, NCI-H1693
Description: SANGER: Inhibition of human NCI-H1693 cell growth in a cell viability assay.

NCI-H2126 = type: functional, cell-based, Homo sapiens; conditions: Homo sapiens, NCI-H2126
Description: SANGER: Inhibition of human NCI-H2126 cell growth in a cell viability assay.

NCI-H520 = type: functional, cell-based, Homo sapiens; conditions: Homo sapiens, NCI-H520
Description: SANGER: Inhibition of human NCI-H520 cell growth in a cell viability assay.

NCI-H526 = type: functional, cell-based; conditions: Homo sapiens
Description: SANGER: Inhibition of human NCI-H526 cell growth in a cell viability assay.

SBC-1 = type: functional, cell-based; conditions: Homo sapiens
Description: SANGER: Inhibition of human SBC-1 cell growth in a cell viability assay.

SK-MEL-24 = type: functional, cell-based; conditions: Homo sapiens
Description: SANGER: Inhibition of human SK-MEL-24 cell growth in a cell viability assay.

SNU-449 = type: functional, cell-based, Homo sapiens; conditions: Homo sapiens, SNU-449
Description: SANGER: Inhibition of human SNU-449 cell growth in a cell viability assay.

SW13 = type: functional, cell-based, Homo sapiens; conditions: Homo sapiens, SW13
Description: SANGER: Inhibition of human SW13 cell growth in a cell viability assay.

SW48 = type: functional, cell-based, Homo sapiens; conditions: Homo sapiens, SW48
Description: SANGER: Inhibition of human SW48 cell growth in a cell viability assay.

SW-620 = type: functional, cell-based, Homo sapiens; conditions: Homo sapiens, SW-620
Description: SANGER: Inhibition of human SW620 cell growth in a cell viability assay.

T98G = type: functional, cell-based, Homo sapiens; conditions: Homo sapiens, T98G
Description: SANGER: Inhibition of human T98G cell growth in a cell viability assay.

8305C = type: functional, cell-based, Homo sapiens; conditions: Homo sapiens, 8305C
Description: SANGER: Inhibition of human 8305C cell growth in a cell viability assay.

A2780 = type: functional, cell-based, Homo sapiens; conditions: Homo sapiens, A2780
Description: SANGER: Inhibition of human A2780 cell growth in a cell viability assay.

A498 = type: functional, cell-based, Homo sapiens; conditions: Homo sapiens, A498
Description: SANGER: Inhibition of human A498 cell growth in a cell viability assay.

BB30-HNC = type: functional, cell-based, Homo sapiens; conditions: Homo sapiens, BB30-HNC
Description: SANGER: Inhibition of human BB30-HNC cell growth in a cell viability assay.

BB49-HNC = type: functional, cell-based, Homo sapiens; conditions: Homo sapiens, BB49-HNC
Description: SANGER: Inhibition of human BB49-HNC cell growth in a cell viability assay.

BHT-101 = type: functional, cell-based, Homo sapiens; conditions: Homo sapiens, BHT-101
Description: SANGER: Inhibition of human BHT-101 cell growth in a cell viability assay.

C-33-A = type: functional, cell-based, Homo sapiens; conditions: Homo sapiens, C-33-A
Description: SANGER: Inhibition of human C-33-A cell growth in a cell viability assay.

C3A = type: functional, cell-based, Homo sapiens; conditions: Homo sapiens, C3A
Description: SANGER: Inhibition of human C3A cell growth in a cell viability assay.

CAL-27 = type: functional, cell-based, Homo sapiens; conditions: Homo sapiens, CAL-27
Description: SANGER: Inhibition of human CAL-27 cell growth in a cell viability assay.

CAL-51 = type: functional, cell-based, Homo sapiens; conditions: Homo sapiens, CAL-51
Description: SANGER: Inhibition of human CAL-51 cell growth in a cell viability assay.

CAL-62 = type: functional, cell-based, Homo sapiens; conditions: Homo sapiens, CAL-62
Description: SANGER: Inhibition of human CAL-62 cell growth in a cell viability assay.

VM-CUB-1 = type: functional, cell-based; conditions: Homo sapiens
Description: SANGER: Inhibition of human VM-CUB-1 cell growth in a cell viability assay.

YKG-1 = type: functional, cell-based, Homo sapiens; conditions: Homo sapiens, YKG-1
Description: SANGER: Inhibition of human YKG-1 cell growth in a cell viability assay.

CHP-212 = type: functional, cell-based, Homo sapiens; conditions: Homo sapiens, CHP-212
Description: SANGER: Inhibition of human CHP-212 cell growth in a cell viability assay.

COLO-679 = type: functional, cell-based, Homo sapiens; conditions: Homo sapiens, COLO-679
Description: SANGER: Inhibition of human COLO-679 cell growth in a cell viability assay.

## C[C@]1(O)C[C@@H](c2nc(-c3ccc4ccc(-c5ccccc5)nc4c3)c3c(N)nccn32)C1 [LINSITINIB]
DB
  IC50: > 2560 nM
DEL
  IC50: > 2560 nM
Detroit 562
  IC50: > 2560 nM
ES4
  IC50: 410 nM
ES8
  IC50: > 2560 nM
ETK-1
  IC50: > 2560 nM
EW-13
  IC50: > 2560 nM
HO-1-N-1
  IC50: > 2560 nM
HT-3
  IC50: > 2560 nM
HuO-3N1
  IC50: > 2560 nM
IST-MEL1
  IC50: > 2560 nM
KE-37
  IC50: > 2560 nM
KLE
  IC50: > 2560 nM
KNS-42
  IC50: > 2560 nM
KYSE-410
  IC50: > 2560 nM
KYSE-70 cell line
  IC50: > 2560 nM
LC-2-ad
  IC50: 1740 nM
LOX IMVI
  IC50: > 2560 nM
LS-513
  IC50: 2050 nM
LU-99A
  IC50: > 2560 nM
MEG-01
  IC50: > 2560 nM
MHH-ES-1
  IC50: > 2560 nM
MHH-PREB-1
  IC50: > 2560 nM
MKN-28
  IC50: > 2560 nM
MZ1-PC
  IC50: > 2560 nM
NB5
  IC50: > 2560 nM
NCI-H1693
  IC50: > 2560 nM
NCI-H2126
  IC50: > 2560 nM
NCI-H520
  IC50: > 2560 nM
NCI-H526
  IC50: > 2560 nM
SBC-1
  IC50: > 2560 nM
SK-MEL-24
  IC50: > 2560 nM
SNU-449
  IC50: > 2560 nM
SW13
  IC50: > 2560 nM
SW48
  IC50: > 2560 nM
SW-620
  IC50: > 2560 nM
T98G
  IC50: > 2560 nM
8305C
  IC50: > 2560 nM
A2780
  IC50: > 2560 nM
A498
  IC50: > 2560 nM
BB30-HNC
  IC50: > 2560 nM
BB49-HNC
  IC50: > 2560 nM
BHT-101
  IC50: > 2560 nM
C-33-A
  IC50: > 2560 nM
C3A
  IC50: > 2560 nM
CAL-27
  IC50: > 2560 nM
CAL-51
  IC50: > 2560 nM
CAL-62
  IC50: > 2560 nM
VM-CUB-1
  IC50: > 2560 nM
YKG-1
  IC50: > 2560 nM
CHP-212
  IC50: > 2560 nM
COLO-679
  IC50: > 2560 nM

## CN(Cc1cnc2nc(N)nc(N)c2n1)c1ccc(C(=O)N[C@@H](CCC(=O)O)C(=O)O)cc1 [METHOTREXATE]
DB
  IC50: 21.3 nM
DEL
  IC50: 3.12 nM
Detroit 562
  IC50: > 200 nM
ES4
  IC50: 79.5 nM
ES8
  IC50: > 200 nM
ETK-1
  IC50: > 200 nM
EW-13
  IC50: 72.3 nM
HO-1-N-1
  IC50: > 200 nM
HT-3
  IC50: 69.4 nM
HuO-3N1
  IC50: 89.1 nM
IST-MEL1
  IC50: 126 nM
KE-37
  IC50: 15.5 nM
KLE
  IC50: > 200 nM
KNS-42
  IC50: > 200 nM
KYSE-410
  IC50: > 200 nM
KYSE-70 cell line
  IC50: > 200 nM
LC-2-ad
  IC50: > 200 nM
LOX IMVI
  IC50: > 200 nM
LS-513
  IC50: > 200 nM
LU-99A
  IC50: > 200 nM
MEG-01
  IC50: 99.4 nM
MHH-ES-1
  IC50: 107 nM
MHH-PREB-1
  IC50: 13.2 nM
MKN-28
  IC50: > 200 nM
MZ1-PC
  IC50: > 200 nM
NB5
  IC50: > 200 nM
NCI-H1693
  IC50: > 200 nM
NCI-H2126
  IC50: > 200 nM
NCI-H520
  IC50: > 200 nM
NCI-H526
  IC50: 0.691 nM
SBC-1
  IC50: > 200 nM
SK-MEL-24
  IC50: > 200 nM
SNU-449
  IC50: > 200 nM
SW13
  IC50: > 200 nM
SW48
  IC50: > 200 nM
SW-620
  IC50: > 200 nM
T98G
  IC50: > 200 nM
8305C
  IC50: 196 nM
A2780
  IC50: 54.5 nM
A498
  IC50: > 200 nM
BB30-HNC
  IC50: 94.3 nM
BB49-HNC
  IC50: > 200 nM
BHT-101
  IC50: > 200 nM
C-33-A
  IC50: > 200 nM
C3A
  IC50: > 200 nM
CAL-27
  IC50: > 200 nM
CAL-51
  IC50: > 200 nM
CAL-62
  IC50: > 200 nM
VM-CUB-1
  IC50: > 200 nM
YKG-1
  IC50: > 200 nM
CHP-212
  IC50: > 200 nM
COLO-679
  IC50: > 200 nM
